Data taken from patent publication US8927538B2, “Carbazole linked pyrrolo[2,1-c][1,4]benzodiazefine hybrids as potential anticancer agents and process for the preparation thereof” (Council of Scientific & Industrial Research, priority 2010, dated 2015).

Tests used:
SNB-19 = test: NCI SRB cytotoxicity, SNB-19; type: cell-based, human; conditions: CNS SNB-19, 48 hrs exposure
Text: (§1) The C8-linked carbazole-PBD hybrids have been tested against sixty human tumour cell lines derived from nine cancer types (leukemia, non-small cell lung cancer, colon cancer, CNS cancer, melanoma, ovarian cancer, renal cancer, prostate cancer and breast cancer) as per NCI protocol, For each compound, dose response curves for individual cell lines have been measured at a minimum of five concentrations at 10 fold dilutions. A protocol of 48 hrs continuous drug exposure has been used, and a sulforhodamine B (SRB) protein assay was used to estimate cell viability or growth. The concentration for 50% cell growth inhibition (GI50), total cell growth inhibition (TGI, 0% growth) and 50% cell death (LC50, […]) compared with the control has been calculated (Table-3).
(§2) Compounds 6c and 14a have been evaluated for in vitro cytotoxicity in sixty cell lines from nine human cancer types of lung (Hop-62, NCI-H226, NCI-H522), leukemia (K-562, SR), colon (HCT-116, HCT-15, HCC-2998), CNS(SF-539), melanoma (SK-MEL-5, UACC-62, M14), ovarian (IGROV1), renal (A498), prostate (PC3) breast (BT-549, MDA-MB-435, HS578T) origin. The results are expressed as percent of cell growth determined relative to that of untreated control cells (Table 1).

SNB-75 = test: NCI SRB cytotoxicity, SNB-75; type: cell-based, human; conditions: CNS SNB-75, 48 hrs exposure
Text: as §1, §2

HOP-92 = test: NCI SRB cytotoxicity, HOP-92; type: cell-based, human; conditions: Non-small cell lung HOP-92, 48 hrs exposure
Text: as §1, §2

[1] = test system: Melanoma cancer cell lines; test: NCI SRB cytotoxicity, melanoma panel; type: cell-based, human; conditions: average of six to eight cell lines
Text: as §1, §2

breast cancer cell lines = test: NCI SRB cytotoxicity, breast panel; type: cell-based, human; conditions: average of six to eight cell lines
Text: as §1, §2

ACHN = test: NCI SRB cytotoxicity, ACHN; type: cell-based, human; conditions: Renal ACHN, 48 hrs exposure
Text: as §1, §2

OVCAR-4 = test: NCI SRB cytotoxicity, OVCAR-4; type: cell-based, human; conditions: Ovarian OVCAR-4, 48 hrs exposure
Text: as §1, §2

Renal cancer cell lines = test: NCI SRB cytotoxicity, renal panel; type: cell-based, human; conditions: average of six to eight cell lines
Text: as §1, §2

UACC-62 = test: NCI SRB cytotoxicity, UACC-62; type: cell-based, human; conditions: Melanoma UACC-62, 48 hrs exposure
Text: as §1, §2

HOP-62 = test: NCI SRB cytotoxicity, HOP-62; type: cell-based, human; conditions: Non-small cell lung HOP-62, 48 hrs exposure
Text: as §1, §2

SK-MEL-2 = test: NCI SRB cytotoxicity, SK-MEL-2; type: cell-based, human; conditions: Melanoma SK-MEL-2, 48 hrs exposure
Text: as §1, §2

IGROV1 = test: NCI SRB cytotoxicity, IGROV1; type: cell-based, human; conditions: Ovarian IGROV1, 48 hrs exposure
Text: as §1, §2

MALME-3M = test: NCI SRB cytotoxicity, MALME-3M; type: cell-based, human; conditions: Melanoma MALME-3M, 48 hrs exposure
Text: as §1, §2

UACC-257 = test: NCI SRB cytotoxicity, UACC-257; type: cell-based, human; conditions: Melanoma UACC-257, 48 hrs exposure
Text: as §1, §2

MDA-MB-435 = test: NCI SRB cytotoxicity, MDA-MB-435; type: cell-based, human; conditions: Breast MDA-MB-435, 48 hrs exposure
Text: as §1, §2

[2] = test system: duplex-form calf thymus DNA (CT-DNA); test: Thermal denaturation studies (DNA binding); conditions: [PBD]:[DNA] molar ratio 1:5, CT-DNA 100 μM, ligand 20 μM; for ΔTm after incubation at 37 °C for 0 h: pH 7.00, 0 h; for ΔTm after incubation at 37 °C for 18 h: pH 7.00, 18 h
Protocol: Compounds have been subjected to thermal denaturation studies with duplex-form calf thymus DNA (CT-DNA) using a modification of a reported procedure. Working solutions in aqueous buffer ([…] NaH2PO4/Na2HPO4, 1 mM Na2EDTA, pH 7.00±0.01) containing CT-DNA (100 μM in phosphate) and the PBD (20 μM) have been prepared by addition of concentrated PBD solutions in DMSO to obtain a fixed [PBD]/[DNA] molar ratio of 1:5. The DNA-PBD solutions have been incubated at 37° C. for 0 and 18 hrs prior to analysis. Samples have been monitored at 260 nm using a Beckman DU-800 spectrophotometer fitted with high performance temperature controller, and heated at 1° C. min^−1 in the 40-110° C. range. DNA helix→coil transition temperatures (Tm) have been obtained from the maxima in the d(A260)/dT derivative plots. Drug-induced alterations in DNA melting behavior are given by: […]Tm=Tm(DNA+PBD)-Tm(DNA alone), where the Tm value for the PBD-free CT-DNA is 68.5 […]0.01.
The DNA-binding for these C8-linked carbazole-PBD hybrids has been examined by thermal denaturation studies using calf thymus (CT) DNA. […] Data for 6a, 6b, 6c, 14a, 14b, and 14d and DC-81 are included in Table 5 for comparison.

SK-MEL-5 = test: NCI SRB cytotoxicity, SK-MEL-5; type: cell-based, human; conditions: Melanoma SK-MEL-5, 48 hrs exposure
Text: as §1, §2

HL-60(TB) = test: NCI SRB cytotoxicity, HL-60(TB); type: cell-based, human; conditions: Leukemia HL-60(TB), 48 hrs exposure
Text: as §1, §2

[3] = test system: Leukemia cancer cell lines; test: NCI SRB cytotoxicity, leukemia panel; type: cell-based, human; conditions: average of six to eight cell lines
Text: as §1, §2

COLO 205 = test: NCI SRB cytotoxicity, COLO 205; type: cell-based, human; conditions: Colon COLO 205, 48 hrs exposure
Text: as §1, §2

HCC-2998 = test: NCI SRB cytotoxicity, HCC-2998; type: cell-based, human; conditions: Colon HCC-2998, 48 hrs exposure
Text: as §1, §2

CNS cancer cell lines = test: NCI SRB cytotoxicity, CNS panel; type: cell-based, human; conditions: average of six to eight cell lines
Text: as §1, §2

A498 = test: NCI SRB cytotoxicity, A498; type: cell-based, human; conditions: Renal A498, 48 hrs exposure
Text: as §1, §2

OVCAR-3 = test: NCI SRB cytotoxicity, OVCAR-3; type: cell-based, human; conditions: Ovarian OVCAR-3, 48 hrs exposure
Text: as §1, §2

[4] = test system: ovarian cancer cell lines; test: NCI SRB cytotoxicity, ovarian panel; type: cell-based, human; conditions: average of six to eight cell lines
Text: as §1, §2

MDA-MB- = test: NCI SRB cytotoxicity, MDA-MB-; type: cell-based, human; conditions: Breast MDA-MB-, 48 hrs exposure
Text: as §1, §2

HCT-116 = test: NCI SRB cytotoxicity, HCT-116; type: cell-based, human; conditions: Colon HCT-116, 48 hrs exposure
Text: as §1, §2

| SMILES | GI50 (SNB-19) [nM] | GI50 (SNB-75) [nM] | GI50 (HOP-92) [nM] | Log10 GI50 [1] [mol/L] | Log10 LC50 (concentration causing 50% lethality) [1] [mol/L] | Log10 GI50 (breast cancer cell lines) [mol/L] | Log10 LC50 (concentration causing 50% lethality) (breast cancer cell lines) [mol/L] | GI50 (ACHN) [nM] | GI50 (OVCAR-4) [nM] | Log10 LC50 (concentration causing 50% lethality) (Renal cancer cell lines) [mol/L] | GI50 (UACC-62) [nM] | GI50 (HOP-62) [nM] | GI50 (SK-MEL-2) [nM] | GI50 (IGROV1) [nM] | GI50 (MALME-3M) [nM] | GI50 (UACC-257) [nM] | GI50 (MDA-MB-435) [nM] | ΔTm after incubation at 37 °C for 0 h [2] [°C] | ΔTm after incubation at 37 °C for 18 h [2] [°C] | GI50 (SK-MEL-5) [nM] | further results |
| --- | --- | --- | --- | --- | --- | --- | --- | --- | --- | --- | --- | --- | --- | --- | --- | --- | --- | --- | --- | --- | --- |
| COc1cc2c(cc1OCCCCCn1c3ccccc3c3ccccc31)N=C[C@@H]1CCCN1C2=O [Compound 6c, 7-Methoxy-8-[5-(9H-9-carbazoly)pentyloxy]-(11aS)-1,2,3,11a-tetrahydro-5H-Pyrrolo[2,1-c][1,4]benzodiazepin-5-one] | 2050 | 1050 | 1310 | −5.71 | −4.74 | −5.67 | −4.47 | 1740 | 3090 | −4.99 | 1860 | 1800 | 1670 | 2080 | 2200 | 2290 | 1730 | 4.1 | 4.9 | 1730 | GI50 (HL-60(TB)): 1720 nM; Log10 GI50 [3]: −5.56 mol/L; Log10 LC50 (concentration causing 50% lethality) [3]: −4.18 mol/L; GI50 (COLO 205): 2110 nM; GI50 (HCC-2998): 1710 nM; Log10 GI50 (CNS cancer cell lines): −5.76 mol/L; Log10 LC50 (concentration causing 50% lethality) (CNS cancer cell lines): −4.97 mol/L; GI50 (A498): 1770 nM; GI50 (OVCAR-3): 1880 nM; Log10 GI50 [4]: −5.57 mol/L; Log10 LC50 (concentration causing 50% lethality) [4]: −4.59 mol/L; GI50 (MDA-MB-): 2140 nM; GI50 (HCT-116): 1650 nM |
| COc1cc2c(cc1OCCCN1CCN(CCCn3c4ccccc4c4ccccc43)CC1)N=C[C@@H]1CCCN1C2=O [Compound 14a] | 210 | 150 | 270 | −6.91 | −6.06 | −6.96 | −5.59 | 250 | 100 | −5.61 | 150 | 80 | 190 | < 10 | 150 | 150 | < 10 | 7.5 | 8.2 | 230 | Log10 GI50 (Renal cancer cell lines): −6.72 mol/L; GI50 (HL-60(TB)): 30 nM; Log10 GI50 [3]: −7.55 mol/L; GI50 (COLO 205): 70 nM; GI50 (HCC-2998): 130 nM; Log10 GI50 (CNS cancer cell lines): −6.96 mol/L; Log10 LC50 (concentration causing 50% lethality) (CNS cancer cell lines): −5.67 mol/L; GI50 (A498): 170 nM; GI50 (OVCAR-3): 69 nM; Log10 GI50 [4]: −7.22 mol/L; Log10 LC50 (concentration causing 50% lethality) [4]: −5.80 mol/L; GI50 (MDA-MB-): 950 nM; GI50 (HCT-116): 60 nM |
